From ChEMBL document CHEMBL3045133, “A 2D image-based method for modeling some c-Src tyrosine kinase inhibitors” (Med Chem Res, 2013) come the findings set out here.

The assay has as its target Proto-oncogene tyrosine-protein kinase Src (Homo sapiens, UniProt P12931). Description: Inhibition of c-Src kinase (unknown origin).

Chain of Proto-oncogene tyrosine-protein kinase Src (P12931 2-536 limits assumed): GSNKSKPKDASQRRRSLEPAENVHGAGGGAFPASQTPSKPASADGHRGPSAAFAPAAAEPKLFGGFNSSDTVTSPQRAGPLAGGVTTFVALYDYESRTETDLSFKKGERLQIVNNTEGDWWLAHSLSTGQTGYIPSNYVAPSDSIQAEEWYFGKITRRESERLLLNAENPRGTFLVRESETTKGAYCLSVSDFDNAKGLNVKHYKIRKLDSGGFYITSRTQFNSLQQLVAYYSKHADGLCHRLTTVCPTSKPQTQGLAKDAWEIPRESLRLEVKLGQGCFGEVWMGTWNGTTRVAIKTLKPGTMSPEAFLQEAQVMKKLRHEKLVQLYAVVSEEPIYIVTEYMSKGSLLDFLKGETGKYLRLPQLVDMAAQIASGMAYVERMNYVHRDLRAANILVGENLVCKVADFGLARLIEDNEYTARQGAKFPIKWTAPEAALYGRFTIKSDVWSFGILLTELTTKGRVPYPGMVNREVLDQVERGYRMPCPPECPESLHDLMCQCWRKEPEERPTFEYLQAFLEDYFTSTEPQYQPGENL

As a reminder, the IC50 is the concentration needed to halve the response being measured. For `Cc1ccccc1-c1cn(-c2ccccc2)c2ncnc(N)c12`, half-maximal inhibition (IC50) was put at 6.31 µM.
